The assay can be described thus: APP processing: AlphaLisa assay of secreted Aβ40 and Aβ42 from SP4CT cells. The settings on record: Homo sapiens, SH-SY5Y cells expressing amyloid β protein (SP4CT cells). Type of assay: cell-based. A digest of the protocol: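 Media from compound-treated SP4CT cells (SH-SY5Y expressing amyloid β protein) was assayed by AlphaLisa. Donor beads carried biotinylated 4G8 anti-Aβ antibody; acceptor beads carried G210 (Aβ40) or 12F4 (Aβ42) in separate plates, with luminescence proportional to peptide abundance.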
(In general: Bead proximity is the source of the signal in Alpha formats.)

The mark [1] stands for this setting: read-out: IC50, inhibition of production of Aβ40 peptide.
The mark [2] stands for this setting: read-out: IC50, inhibition of production of Aβ42 peptide.

For orientation: IC50 means the concentration that inhibits the measured activity by half.

Read-outs that look alike come from different tables or passages of the source. Bounds are passed on as bounds.

Consider `CCn1nc(-c2cccc(C(C)(C)NS(=O)(=O)CC(F)(F)F)c2)cc1Oc1ccc(CNCC(=O)OC)cc1` [Example 81, methyl N-[4-({1-ethyl-3-[3-(1-methyl-1-{[(2,2,2-trifluoroethyl)sulfonyl]amino}ethyl)phenyl]-1H-pyrazol-5-yl}oxy)benzyl]glycinate], for which the half-maximal inhibitory concentration (IC50) by setting is: under setting [1], less than 200 nM; under setting [2], less than 200 nM.
As for `CCn1nc(-c2cccc(C(C)(C)NS(=O)(=O)CC(F)(F)F)c2)cc1Oc1ccc(CNc2ccc(OC)cc2)cc1` [Example 82], the IC50 runs as follows: under setting [1], less than 200 nM; under setting [2], less than 200 nM.
For `CCn1nc(-c2cccc(C(C)(C)NS(=O)(=O)CC(F)(F)F)c2)cc1Oc1ccc(CNc2ccon2)cc1` [Example 83, N-{1-[3-(1-ethyl-5-{4-[(isoxazol-3-ylamino)methyl]phenoxy}-1H-pyrazol-3-yl)phenyl]-1-methylethyl}-2,2,2-trifluoroethanesulfonamide], the IC50 reads like this: under setting [1], less than 200 nM; under setting [2], less than 200 nM.
Turning to `CCn1nc(-c2cccc(C(C)(C)NS(=O)(=O)CC(F)(F)F)c2)cc1Oc1ccc(CNc2ccccc2)cc1` [Example 84, N-[1-(3-{5-[4-(anilinomethyl)phenoxy]-1-ethyl-1H-pyrazol-3-yl}phenyl)-1-methylethyl]-2,2,2-trifluoroethanesulfonamide], the IC50 under setting [1] is less than 200 nM and the concentration for half-maximal inhibition (IC50) under setting [2] was less than 200 nM.
Take `CCn1nc(-c2cccc(C(C)(C)NS(=O)(=O)CC(F)(F)F)c2)cc1Oc1ccc(CNc2cccnc2)cc1` [Example 85, N-{1-[3-(1-ethyl-5-{4-[(pyridin-3-ylamino)methyl]phenoxy}-1H-pyrazol-3-yl)phenyl]-1-methylethyl}-2,2,2-trifluoroethanesulfonamide]: the IC50 runs as follows: under setting [1], less than 200 nM; under setting [2], less than 200 nM.
For the compound `CCn1nc(-c2cccc(C(C)(C)NS(=O)(=O)CC(F)(F)F)c2)cc1Oc1ccc(CNc2nccs2)cc1` [Example 86, N-{1-[3-(1-ethyl-5-{4-[(1,3-thiazol-2-ylamino)methyl]phenoxy}-1H-pyrazol-3-yl)phenyl]-1-methylethyl}-2,2,2-trifluoroethanesulfonamide], the half-inhibitory concentration (IC50) by setting is: under setting [1], less than 200 nM; under setting [2], less than 200 nM.
Consider `CCn1nc(-c2cccc(C(C)(C)NS(=O)(=O)CC(F)(F)F)c2)cc1Oc1ccc(CN2CCC3(CC2)OCCO3)cc1` [Example 87, N-[1-(3-{5-[4-(1,4-dioxa-8-azaspiro[4.5]dec-8-ylmethyl)phenoxy]-1-ethyl-1H-pyrazol-3-yl}phenyl)-1-methylethyl]-2,2,2-trifluoroethanesulfonamide], for which the IC50 by setting is: under setting [1], less than 200 nM; under setting [2], less than 200 nM.
For `CCn1nc(-c2cccc(C(C)(C)NS(=O)(=O)CC(F)(F)F)c2)cc1Oc1ccc(CNCc2cccs2)cc1` [Example 88, N-(1-{3-[1-ethyl-5-(4-{[(2-thienylmethyl)amino]methyl}phenoxy)-1H-pyrazol-3-yl]phenyl}-1-methylethyl)-2,2,2-trifluoroethanesulfonamide], the half-maximal inhibitory concentration (IC50) is, setting by setting: under setting [1], less than 200 nM; under setting [2], less than 200 nM.
As for `CCn1nc(-c2cccc(C(C)(C)NS(=O)(=O)CC(F)(F)F)c2)cc1Oc1ccc(CNCc2ccncc2)cc1` [Example 89, N-(1-{3-[1-ethyl-5-(4-{[(pyridin-4-ylmethyl)amino]methyl}phenoxy)-1H-pyrazol-3-yl]phenyl}-1-methylethyl)-2,2,2-trifluoroethanesulfonamide], the concentration for half-maximal inhibition (IC50) is, setting by setting: under setting [1], less than 200 nM; under setting [2], less than 200 nM.
Regarding `CCn1nc(-c2cccc(C(C)(C)NS(=O)(=O)CC(F)(F)F)c2)cc1Oc1ccc(CNCC2(C)CCCO2)cc1` (stereo not drawn) [Example 90, N-[1-(3-{1-ethyl-5-[4-({[(2-methyltetrahydrofuran-2-yl)methyl]amino}methyl)phenoxy]-1H-pyrazol-3-yl}phenyl)-1-methylethyl]-2,2,2-trifluoroethanesulfonamide], the half-inhibitory concentration (IC50) runs as follows: under setting [1], less than 200 nM; under setting [2], less than 200 nM.
As for `CCn1nc(-c2cccc(C(C)(C)NS(=O)(=O)CC(F)(F)F)c2)cc1Oc1ccc(CNCC2CCOCC2)cc1` [Example 91, N-(1-{3-[1-ethyl-5-(4-{[(tetrahydro-2H-pyran-4-ylmethyl)amino]methyl}phenoxy)-1H-pyrazol-3-yl]phenyl}-1-methylethyl)-2,2,2-trifluoroethanesulfonamide], the IC50 was less than 200 nM under setting [1] and less than 200 nM under setting [2].
With `CCn1nc(-c2cccc(C(C)(C)NS(=O)(=O)CC(F)(F)F)c2)cc1Oc1ccc(CNC2CCCOC2)cc1` (stereo not drawn) [Example 92, N-{1-[3-(1-ethyl-5-{4-[(tetrahydro-2H-pyran-3-ylamino)methyl]phenoxy}-1H-pyrazol-3-yl)phenyl]-1-methylethyl}-2,2,2-trifluoroethanesulfonamide], the IC50 was less than 200 nM under setting [1] and less than 200 nM under setting [2].
Regarding `CCn1nc(-c2cccc(C(C)(C)NS(=O)(=O)CC(F)(F)F)c2)cc1Oc1ccc(CN2CCN(C(C)=O)CC2)cc1` [Example 93, N-{1-[3-(5-{4-[(4-acetylpiperazin-1-yl)methyl]phenoxy}-1-ethyl-1H-pyrazol-3-yl)phenyl]-1-methylethyl}-2,2,2-trifluoroethanesulfonamide], the IC50 under setting [1] is less than 200 nM and the half-inhibitory concentration (IC50) under setting [2] is less than 200 nM.
Turning to `CCn1nc(-c2cccc(C(C)(C)NS(=O)(=O)CC(F)(F)F)c2)cc1Oc1ccc(CNCc2cccnc2)cc1` [Example 94, N-(1-{3-[1-ethyl-5-(4-{[(pyridin-3-ylmethyl)amino]methyl}phenoxy)-1H-pyrazol-3-yl]phenyl}-1-methylethyl)-2,2,2-trifluoroethanesulfonamide], the IC50 is less than 200 nM under setting [1] and less than 200 nM under setting [2].
As for `CCn1nc(-c2cccc(C3(NS(=O)(=O)CC(F)(F)F)COC3)c2)cc1Oc1ccc(C(F)(F)F)cc1` [Example 95, N-[3-(3-{1-ethyl-5-[4-(trifluoromethyl)phenoxy]-1H-pyrazol-3-yl}phenyl)oxetan-3-yl]-2,2,2-trifluoroethanesulfonamide], the IC50 runs as follows: under setting [1], less than 200 nM; under setting [2], less than 200 nM.
Turning to `CCn1nc(-c2cccc(C3(NS(=O)(=O)NC)COC3)c2)cc1Oc1ccc(C(F)(F)F)cc1` [Example 97, N-[3-(3-{1-ethyl-5-[4-(trifluoromethyl)phenoxy]-1H-pyrazol-3-yl}phenyl)oxetan-3-yl]-N′-methylsulfamide], the IC50 runs as follows: under setting [1], less than 200 nM; under setting [2], less than 200 nM.
For the compound `CCn1nc(-c2cccc(C3(NS(=O)(=O)NC4CCC(F)(F)C4)COC3)c2)cc1Oc1ccc(C(F)(F)F)cc1` (stereo not drawn) [Example 99], the concentration for half-maximal inhibition (IC50) is, setting by setting: under setting [1], less than 200 nM; under setting [2], less than 200 nM.
Regarding `CCn1nc(Oc2ccc(C(F)(F)F)cc2)cc1-c1cccc(C2(NS(=O)(=O)NCC(F)(F)F)COC2)c1` [Example 101, N-[3-(3-{1-ethyl-3-[4-(trifluoromethyl)phenoxy]-1H-pyrazol-5-yl}phenyl)oxetan-3-yl]-N′-(2,2,2-trifluoroethyl)sulfamide], the IC50 runs as follows: under setting [1], less than 200 nM; under setting [2], less than 200 nM.
With `CCn1nc(Oc2ccc(C(F)(F)F)cc2)cc1-c1cccc(C2(NS(=O)(=O)NCCC(F)(F)F)COC2)c1` [Example 102], the IC50 reads like this: under setting [1], less than 200 nM; under setting [2], less than 200 nM.
As for `CCn1nc(Oc2ccc(C(F)(F)F)cc2)cc1-c1cccc(C2(NS(=O)(=O)NCC3CCC3)COC2)c1` [Example 103], the IC50 by setting is: under setting [1], less than 200 nM; under setting [2], less than 200 nM.
As to `CC(C)(NS(=O)(=O)CC(F)(F)F)c1cccc(-c2cc(Oc3ccc(C(F)(F)F)cc3)n(CCO)n2)c1` [Example 105, 2,2,2-trifluoro-N-[1-(3-{1-(2-hydroxyethyl)-5-[4-(trifluoromethyl)phenoxy]-1H-pyrazol-3-yl}phenyl)-1-methylethyl]ethanesulfonamide], the IC50 reads like this: under setting [1], less than 200 nM; under setting [2], less than 200 nM.
Regarding `Cn1nc(-c2cccc(C3(NS(=O)(=O)CC(F)(F)F)CC3)c2)cc1Oc1ccc(C(F)(F)F)cc1` [Example 106, 2,2,2-trifluoro-N-[1-(3-{1-methyl-5-[4-(trifluoromethyl)phenoxy]-1H-pyrazol-3-yl}phenyl)cyclopropyl]ethanesulfonamide], the IC50 is less than 200 nM under setting [1] and less than 200 nM under setting [2].
With `O=S(=O)(CC(F)(F)F)NC1(c2cccc(-c3cc(Oc4ccc(C(F)(F)F)cc4)n(CC(F)(F)F)n3)c2)CC1` [Example 107, 2,2,2-trifluoro-N-[1-(3-{1-(2,2,2-trifluoroethyl)-5-[4-(trifluoromethyl)phenoxy]-1H-pyrazol-3-yl}phenyl)cyclopropyl]ethanesulfonamide], the IC50 was less than 200 nM under setting [1] and less than 200 nM under setting [2].
In the case of `CCn1nc(-c2cccc(C(C)(C)NS(=O)(=O)CC(F)(F)F)c2)cc1Oc1ccc(C#N)cc1` [Example 108, N-(1-{3-[5-(4-cyanophenoxy)-1-ethyl-1H-pyrazol-3-yl]phenyl}-1-methylethyl)-2,2,2-trifluoroethanesulfonamide], the IC50 runs as follows: under setting [1], less than 200 nM; under setting [2], less than 200 nM.
For the compound `CCn1nc(-c2cccc(C3(NS(=O)(=O)CC(F)(F)F)CCC3)c2)cc1Oc1ccc(C(F)(F)F)cc1` [Example 109, N-[1-(3-{1-ethyl-5-[4-(trifluoromethyl)phenoxy]-1H-pyrazol-3-yl}phenyl)cyclobutyl]-2,2,2-trifluoroethanesulfonamide], the concentration for half-maximal inhibition (IC50) is, setting by setting: under setting [1], less than 200 nM; under setting [2], less than 200 nM.
On to `CCn1nc(-c2cccc(C3(NS(=O)(=O)CC(F)(F)F)CC3)c2)c(Cl)c1Oc1ccc(C(F)(F)F)cc1` [Example 111, N-[1-(3-{4-chloro-1-ethyl-5-[4-(trifluoromethyl)phenoxy]-1H-pyrazol-3-yl}phenyl)cyclopropyl]-2,2,2-trifluoroethanesulfonamide], for which the IC50 is less than 200 nM under setting [1] and less than 200 nM under setting [2].
As to `CCn1nc(-c2cccc(C(C)(C)NS(=O)(=O)CC(F)(F)F)c2)c(Cl)c1Oc1ccc(C(F)(F)F)cc1` [Example 112, N-[2-(3-{4-chloro-1-ethyl-5-[4-(trifluoromethyl)phenoxy]-1H-pyrazol-3-yl}phenyl)propan-2-yl]-2,2,2-trifluoroethanesulfonamide], the IC50 runs as follows: under setting [1], less than 200 nM; under setting [2], less than 200 nM.

Values taken from patent US8871796B2, “Diaryl ether derivatives as notch sparing gamma secretase inhibitors” (Merck Sharp & Dohme Corp., priority 2009, dated 2014).
